Where a SMILES comes first, the peptide text is derived from it. Bridges are numbered along the chain shown (N, C = ends). [ ]: non-standard residue; d: D form. Tle = CC(C)(C)[C@H](N)C(=O)O; dDab = NCC[C@@H](N)C(=O)O; Orn = NCCC[C@H](N)C(=O)O; Dab = NCC[C@H](N)C(=O)O
What was measured:
[1] = tested on: human red blood cells (hRBC); experiment: Hemolysis: hemolytic activity at 100 μg/mL, 1 h at 37° C.; details: red cells of human, 1 h, 100
Method in brief: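 Peptides at 100 μg/mL incubated with washed 20% (v/v) human erythrocytes (~0.9×10^9 cells/mL) for 1 h at 37 °C with shaking. Released hemoglobin read at OD 540 nm in supernatant; 0% and 100% lysis from PBS/0.001% acetic acid and 2.5% Triton X-100.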

[2] = tested on: Acinetobacter baumannii DSM 30008; format: cell-based; details: DSM 30008
Method in brief: (§1)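 Peptide activity was tested by NCCLS broth microdilution with slight modifications. Bacteria were diluted in cation-adjusted Mueller-Hinton II broth to approximately 10^6 CFU/mL against a 0.5 McFarland standard. They were then exposed to two-fold serial peptide dilutions in broth containing 0.002% final polysorbate 80.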

[3] = tested on: Klebsiella pneumoniae ATCC 13883; format: cell-based; details: ATCC 13883
Method in brief: as §1

[4] = tested on: Escherichia coli ATCC 25922; format: cell-based; details: ATCC 25922
Method in brief: as §1

SMILES	Hemolysis at 100 μg/mL [1]	Acinetobacter baumannii DSM 30008 MIC [2]	Klebsiella pneumoniae ATCC 13883 MIC [3]	Escherichia coli ATCC 25922 MIC [4]
CC[C@H](C)[C@@H]1NC(=O)[C@@H]2CCCN2C(=O)[C@@H](CCN)NC(=O)[C@H](CO)NC(=O)[C@@H]2CSSC[C@H](NC1=O)C(=O)N[C@@H](Cc1ccc(O)cc1)C(=O)N[C@@H](CCN)C(=O)N[C@@H](CCCN)C(=O)N[C@H](CCN)C(=O)N[C@@H](CCN)C(=O)N[C@@H](Cc1c[nH]c3ccccc13)C(=O)N[C@@H](CCN)C(=O)N[C@@H](C(C)(C)C)C(=O)N2 [Example 14, cyclo(-Ile-Cys-Tyr-Dab-Orn-^DDab-Dab-Trp-Dab-tBuGly-Cys-Ser-^DDab-Pro-)] (cyclo(CS[dDab]PICY[Dab][Orn][dDab][Dab]W[Dab][Tle]); disulfide 1-6)	1%	1 µg/mL	1 µg/mL	0.5 µg/mL
CC(C)C[C@@H]1NC(=O)[C@H](CCCNC(=N)N)NC(=O)[C@@H](CCN)NC(=O)[C@H](C(C)C)NC(=O)[C@H](CO)NC(=O)[C@H](C(C)C)NC(=O)[C@@H]2CSSC[C@H](NC(=O)[C@H](Cc3ccc(O)cc3)NC(=O)[C@H](CO)NC1=O)C(=O)N[C@@H](CCCN)C(=O)N[C@H](CCN)C(=O)N[C@@H](CCN)C(=O)N[C@@H](Cc1ccccc1)C(=O)N2 [Example 39, cyclo(-Leu-Ser-Tyr-Cys-Orn-^DDab-Dab-Phe-Cys-Val-Ser-Val-^DDab-Arg-)] (HELM PEPTIDE1{C.[Orn].[NCC[C@@H](N[*:1])C(=O)[*:2]].[Dab].F.C.V.S.V.[NCC[C@@H](N[*:1])C(=O)[*:2]].R.L.S.Y}$PEPTIDE1,PEPTIDE1,1:R3-6:R3|PEPTIDE1,PEPTIDE1,1:R1-14:R2$$$V2.0)	4.5%	0.5 µg/mL	0.25 µg/mL	0.5 µg/mL
CC(C)C[C@@H]1NC(=O)[C@H](CCCNC(=N)N)NC(=O)[C@@H](CCN)NC(=O)[C@H](C(C)C)NC(=O)[C@@H]2CSSC[C@H](NC1=O)C(=O)N[C@@H](Cc1ccc(O)cc1)C(=O)N[C@@H](C(C)C)C(=O)N[C@@H](CCCN)C(=O)N[C@H](CCN)C(=O)N[C@@H](CCN)C(=O)N[C@@H](Cc1c[nH]c3ccccc13)C(=O)N[C@@H](Cc1ccc(O)cc1)C(=O)N[C@@H](Cc1ccc(O)cc1)C(=O)N2 [Example 21, cyclo(-Leu-Cys-Tyr-Val-Orn-^DDab-Dab-Trp-Tyr-Tyr-Cys-Val-^DDab-Arg-)] (HELM PEPTIDE1{C.V.[NCC[C@@H](N[*:1])C(=O)[*:2]].R.L.C.Y.V.[Orn].[NCC[C@@H](N[*:1])C(=O)[*:2]].[Dab].W.Y.Y}$PEPTIDE1,PEPTIDE1,1:R3-6:R3|PEPTIDE1,PEPTIDE1,1:R1-14:R2$$$V2.0)	6%	0.5 µg/mL	1 µg/mL	1 µg/mL
CC(C)C[C@@H]1NC(=O)[C@@H]2CCCN2C(=O)[C@@H](C)NC(=O)[C@H](CO)NC(=O)[C@@H]2CCNC(=O)C[C@H](NC1=O)C(=O)N[C@@H](Cc1ccc(O)cc1)C(=O)N[C@@H](CCN)C(=O)N[C@@H](CCCN)C(=O)N[C@H](CCN)C(=O)N[C@@H](CCN)C(=O)N[C@@H](Cc1c[nH]c3ccccc13)C(=O)N[C@@H](CCN)C(=O)N[C@@H](Cc1ccc(O)cc1)C(=O)N2 [Example 77, cyclo(-Leu-Asp-Tyr-Dab-Orn-^DDab-Dab-Trp-Dab-Tyr-Dab-Ser-^DAla-Pro-)] (HELM PEPTIDE1{L.D.Y.[Dab].[Orn].[NCC[C@@H](N[*:1])C(=O)[*:2]].[Dab].W.[Dab].Y.[Dab].S.[dA].P}$PEPTIDE1,PEPTIDE1,2:R3-11:R3|PEPTIDE1,PEPTIDE1,1:R1-14:R2$$$V2.0)	1%	3 µg/mL	2 µg/mL	1.5 µg/mL
CC(C)C[C@@H]1NC(=O)[C@H](CCCNC(=N)N)NC(=O)[C@H]2CCCN2C(=O)[C@H](C(C)C)NC(=O)[C@H]([C@@H](C)O)NC(=O)[C@H](C(C)C)NC(=O)[C@@H]2CSSC[C@H](NC(=O)[C@H](Cc3ccc(O)cc3)NC(=O)[C@H]([C@@H](C)O)NC1=O)C(=O)N[C@@H](CCN)C(=O)N[C@H](CCN)C(=O)N[C@@H](CCN)C(=O)N[C@@H](Cc1c[nH]c3ccccc13)C(=O)N2 [Example 36, cyclo(-Leu-Thr-Tyr-Cys-Dab-^DDab-Dab-Trp-Cys-Val-Thr-Val-^DPro-Arg-)] (HELM PEPTIDE1{C.[Dab].[NCC[C@@H](N[*:1])C(=O)[*:2]].[Dab].W.C.V.T.V.[dP].R.L.T.Y}$PEPTIDE1,PEPTIDE1,1:R3-6:R3|PEPTIDE1,PEPTIDE1,1:R1-14:R2$$$V2.0)	2%	2 µg/mL	2 µg/mL	4 µg/mL
CCC[C@@H]1NC(=O)[C@H](CCCNC(=N)N)NC(=O)[C@@H](CCN)NC(=O)[C@H](C(C)C)NC(=O)[C@@H]2CSSC[C@H](NC1=O)C(=O)N[C@@H](Cc1ccc(O)cc1)C(=O)N[C@@H](CC(N)=O)C(=O)N[C@@H](CCCN)C(=O)N[C@H](CCN)C(=O)N[C@@H](CCN)C(=O)N[C@@H](Cc1c[nH]c3ccccc13)C(=O)N[C@@H](CO)C(=O)N[C@@H](Cc1ccc(O)cc1)C(=O)N2 [Example 60, cyclo(-Nva-Cys-Tyr-Asn-Orn-^DDab-Dab-Trp-Ser-Tyr-Cys-Val-^DDab-Arg-)] (HELM PEPTIDE1{C.V.[NCC[C@@H](N[*:1])C(=O)[*:2]].R.[Nva].C.Y.N.[Orn].[NCC[C@@H](N[*:1])C(=O)[*:2]].[Dab].W.S.Y}$PEPTIDE1,PEPTIDE1,1:R3-6:R3|PEPTIDE1,PEPTIDE1,1:R1-14:R2$$$V2.0)	1%	0.75 µg/mL	1 µg/mL	1 µg/mL
CC[C@H](C)[C@@H]1NC(=O)[C@H](CCCNC(=N)N)NC(=O)[C@@H](CCN)NC(=O)[C@H](Cc2ccc(O)cc2)NC(=O)[C@@H]2CSSC[C@H](NC1=O)C(=O)N[C@@H](Cc1ccc(O)cc1)C(=O)N[C@@H](CC(N)=O)C(=O)N[C@@H](CCCN)C(=O)N[C@H](CCN)C(=O)N[C@@H](CCN)C(=O)N[C@@H](CC(C)C)C(=O)N[C@@H](CO)C(=O)N[C@@H](C(C)C)C(=O)N2 [Example 5, cyclo(-Ile-Cys-Tyr-Asn-Orn-^DDab-Dab-Leu-Ser-Val-Cys-Tyr-^DDab-Arg-)] (HELM PEPTIDE1{C.Y.N.[Orn].[NCC[C@@H](N[*:1])C(=O)[*:2]].[Dab].L.S.V.C.Y.[NCC[C@@H](N[*:1])C(=O)[*:2]].R.I}$PEPTIDE1,PEPTIDE1,1:R3-10:R3|PEPTIDE1,PEPTIDE1,1:R1-14:R2$$$V2.0)	4%	0.25 µg/mL	0.25 µg/mL	0.5 µg/mL
CC(C)C[C@@H]1NC(=O)[C@H](CCN)NC(=O)[C@H]2CCCN2C(=O)[C@H](C(C)C)NC(=O)[C@H]([C@@H](C)O)NC(=O)[C@H](C(C)C)NC(=O)[C@@H]2CSSC[C@H](NC(=O)[C@H](Cc3ccc(O)cc3)NC(=O)[C@H]([C@@H](C)O)NC1=O)C(=O)N[C@@H](CCN)C(=O)N[C@H](CCN)C(=O)N[C@@H](CCN)C(=O)N[C@@H](Cc1c[nH]c3ccccc13)C(=O)N2 [Example 37, cyclo(-Leu-Thr-Tyr-Cys-Dab-^DDab-Dab-Trp-Cys-Val-Thr-Val-^DPro-Dab-)] (HELM PEPTIDE1{C.[Dab].[NCC[C@@H](N[*:1])C(=O)[*:2]].[Dab].W.C.V.T.V.[dP].[Dab].L.T.Y}$PEPTIDE1,PEPTIDE1,1:R3-6:R3|PEPTIDE1,PEPTIDE1,1:R1-14:R2$$$V2.0)	2%	2 µg/mL	2 µg/mL	4 µg/mL
CC[C@H](C)[C@@H]1NC(=O)[C@H](C)NC(=O)[C@@H](CCN)NC(=O)[C@H](CO)NC(=O)[C@@H]2CSSC[C@H](NC1=O)C(=O)N[C@@H](Cc1ccc(O)cc1)C(=O)N[C@@H](CCN)C(=O)N[C@@H](CCCN)C(=O)N[C@H](CCN)C(=O)N[C@@H](CCN)C(=O)N[C@@H](Cc1c[nH]c3ccccc13)C(=O)N[C@@H](CCN)C(=O)N[C@@H](C(C)(C)C)C(=O)N2 [Example 13, cyclo(-Ile-Cys-Tyr-Dab-Orn-^DDab-Dab-Trp-Dab-tBuGly-Cys-Ser-^DDab-Ala-)] (cyclo(AICY[Dab][Orn][dDab][Dab]W[Dab][Tle]CS[dDab]); disulfide 3-12)	1%	2 µg/mL	8 µg/mL	0.5 µg/mL

— patent US11753446B2, “Beta-hairpin peptidomimetics” (POLYPHOR AG, priority 2014, dated 2023)
